Molecular target: voltage-dependent anion channel 1 (VDAC1) (Rattus norvegicus, UniProt Q9Z2L0)
Assay: microscale thermophoresis with fluorescently labeled purified VDAC1
Type: binding

Sequence of voltage-dependent anion channel 1 (VDAC1) (Q9Z2L0 2-283): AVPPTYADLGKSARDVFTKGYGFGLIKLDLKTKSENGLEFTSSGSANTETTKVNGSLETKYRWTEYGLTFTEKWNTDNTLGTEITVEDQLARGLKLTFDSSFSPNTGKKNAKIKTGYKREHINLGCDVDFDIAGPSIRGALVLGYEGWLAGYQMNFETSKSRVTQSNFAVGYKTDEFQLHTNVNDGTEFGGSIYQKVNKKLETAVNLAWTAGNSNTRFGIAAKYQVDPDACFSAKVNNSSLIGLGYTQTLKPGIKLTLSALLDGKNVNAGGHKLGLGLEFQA

C=C(C)[C@@H]1CCC(C)=C[C@H]1c1c(O)cc(CCCCC)cc1O [CBD, cannabidiol]
Kd: 11.2 ± 6 µM
